Measured values published in ChEMBL document CHEMBL4433247, “Discovery of 2,3'-diindolylmethanes as a novel class of PCSK9 modulators” (Bioorg Med Chem Lett, 2019).
pIC50: −log10 of the molar value.

Key:
Assay type in all cases: cell-based; call rule not given here
HepG2 [1] = assay: Cytotoxicity against human HepG2 cells incubated for 24 hrs by MTT assay; conditions: hepg2, 24 h
[2] = biological target: T1, Proprotein convertase subtilisin/kexin type 9 (Homo sapiens, UniProt Q8NBP7); assay: Inhibition of human PCSK9 in HepG2 cells incubated for 48 hrs by AlphaLISA assay; conditions: for pIC50: read-out: IC50
T1 sequence (Q8NBP7 31-152 limits assumed): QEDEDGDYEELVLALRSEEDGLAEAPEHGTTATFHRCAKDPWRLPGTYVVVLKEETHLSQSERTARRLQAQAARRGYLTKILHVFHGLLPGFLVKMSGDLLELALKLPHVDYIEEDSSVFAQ
T1 sequence (Q8NBP7 153-692 limits assumed): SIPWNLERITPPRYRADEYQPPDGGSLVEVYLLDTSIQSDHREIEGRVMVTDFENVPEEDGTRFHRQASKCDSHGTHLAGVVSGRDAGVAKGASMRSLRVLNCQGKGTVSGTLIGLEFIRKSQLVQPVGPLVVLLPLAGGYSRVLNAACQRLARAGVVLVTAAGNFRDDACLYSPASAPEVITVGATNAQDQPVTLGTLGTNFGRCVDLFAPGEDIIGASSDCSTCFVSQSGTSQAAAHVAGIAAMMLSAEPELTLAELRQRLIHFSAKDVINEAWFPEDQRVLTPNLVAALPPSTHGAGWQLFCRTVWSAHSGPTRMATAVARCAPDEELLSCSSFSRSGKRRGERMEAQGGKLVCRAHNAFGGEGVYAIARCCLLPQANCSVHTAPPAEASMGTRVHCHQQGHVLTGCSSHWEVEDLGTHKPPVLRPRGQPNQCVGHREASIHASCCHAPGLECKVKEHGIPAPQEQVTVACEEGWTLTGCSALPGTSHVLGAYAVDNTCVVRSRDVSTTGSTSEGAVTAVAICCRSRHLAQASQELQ

HepG2 [3] = assay: Cytotoxicity against human HepG2 cells at <50 uM incubated for 24 hrs by MTT assay; conditions: hepg2, 24 h
[4] = biological target: T1, Proprotein convertase subtilisin/kexin type 9; assay: Inhibition of human PCSK9 in HepG2 cells incubated for 24 hrs followed by medium replenishment and measured after 24 hrs by ELISA

Row | Structure (SMILES) | pIC50 [2] | IC50 ([2]; hepg2) | pIC50 [4] | Activity (HepG2 [1]) [µM] | Activity (HepG2 [3])
1 | Clc1ccc2[nH]cc(Cc3cc4ccccc4[nH]3)c2c1 | 5.00 | – | – | > 50 | –
2 | Cc1ccc2[nH]cc(Cc3cc4ccccc4[nH]3)c2c1 | 5.25 | – | – | > 50 | –
3 | Cc1ccc(S(=O)(=O)n2c(Cc3c[nH]c4c(Cl)cccc34)c(C)c3ccccc32)cc1 | 5.64 | – | – | > 50 | –
4 | Cc1ccc(S(=O)(=O)n2c(Cc3cn(C)c4ccccc34)c(C)c3ccccc32)cc1 | 5.82 | – | – | 45 | –
5 | Brc1ccc2[nH]cc(Cc3cc4ccccc4[nH]3)c2c1 | – | Not Active | – | – | –
6 | Cc1ccc(S(=O)(=O)n2c(Cc3cn(C)c4ccccc34)c(-c3ccccc3)c3ccccc32)cc1 | 5.64 | – | – | 48 | –
7 | Clc1cccc2c(Cc3cc4ccccc4[nH]3)c[nH]c12 | 5.55 | – | – | > 50 | –
8 | Fc1ccc2[nH]c(Cc3c[nH]c4c(F)cccc34)cc2c1 | – | – | 6.70 | – | Non-Toxic

Now from value to molecule, other results behind:

Row | pIC50 [2] | IC50 ([2]; hepg2) | pIC50 [4] | Structure (SMILES) | Activity (HepG2 [1]) [µM] | Activity (HepG2 [3])
9 | 5.85 | – | – | Cc1ccc2c(Cc3cc4ccccc4[nH]3)c[nH]c2c1 | 45 | –
10 | 5.96 | – | – | Cc1ccc(S(=O)(=O)n2c(Cc3cn(C)c4ccccc34)c(C(C)C)c3ccccc32)cc1 | > 50 | –
11 | 6.60 | – | – | Fc1ccc2[nH]c(Cc3c[nH]c4c(Cl)cccc34)cc2c1 | > 50 | –
12 | 6.52 | – | – | Fc1cccc2c(Cc3cc4ccccc4[nH]3)c[nH]c12 | 38 | –
13 | 6.05 | – | – | Cc1cccc2c(Cc3cc4ccccc4[nH]3)c[nH]c12 | > 50 | –
